Entries after “also recorded” stand apart in the source; their conditions may differ.
Tests used:
CD3+ cells = experiment: CD3+ cell (T cell) infiltration by immunohistochemistry, acute GVHD mouse model; assay type: in vivo, mice; conditions: Fosaprepitant 10 mg/mL topically six times a day; day 29; p<0.001
Procedure: (§1) 10-week-old male BALB/C and C57BL/6N mice (Charles River Laboratory, Lecco, Italy) were used for all the experiments (n=5/each group). All mice were free from ocular surface disease at baseline. The housing conditions were controlled (temperature 22° C., light from 07:00-19:00, humidity 50%-60%), and fresh food and water were freely available. The animals were monitored 3 times per week for 28 days post-transplantation for in vivo slit-lamp microscopy imaging, ocular surface score and systemic GVHD score (FIG. 11A). Carbon dioxide inhalation and subsequent cervical dislocation were applied to euthanize the animals. All the experiments were approved by the Animal Care and Use Committee of the IRCCS San Raffaele Scientific Institute, in accordance with the ARVO Statement for the Use of Animals in Ophthalmic and Vision Research.
Allogenic BMT was conducted using the C57BL/6N and BALB/c mice as transplant donors and recipients, respectively. The recipient mice received total body irradiation (TBI) (900 cGy divided in two fractions) from a Cs source 1 day before the transplantation. The donor C57BL/6N mice were sacrificed on dry ice and they femur and spleen were harvested. The bones were gently crushed manually using a sterile stick, and bone marrow (BM) cells were released by mixing the fragments of bones with RPMI. The suspension of BM cells was filtered to remove the impurities inside. The spleens were also gently crushed into a cell suspension and filtered. Inventors suspended the BM cells and splenic cells with RPMI and adjusted the density of cells to 1×10^6/[…] and 2×10^6/[…], respectively. […]
Mice were sacrificed 28 days after BM transplantation (Day 29 post irradiation) by carbon dioxide inhalation. […] Following three washes with PBS-T, sections were incubated in anti-goat HRP for 15 minutes and then detected with a goat-on-rodent HRP-Polymer Kit (Biocare Medical). Primary antibody labeling was detected using brown DAB substrate (Vector Laboratories, Burlingame, Calif., USA). […]

NK1R = biological target: T1, NK1R (Mus musculus, UniProt P30548); experiment: Epithelial corneal damage by corneal fluorescein staining, acute ocular GVHD mouse model; assay type: in vivo, mice; conditions: Fosaprepitant 10 mg/mL topically six times a day (BM+T+Fosa); from day 14, p<0.05
T1 construct: NK1R is expressed by both corneal epithelial and stem cell-like cells; from tissue; host or cells: cornea / ocular surface of live C57BL6/N mice (topical dosing in vivo)
T1 sequence (P30548 whole entry): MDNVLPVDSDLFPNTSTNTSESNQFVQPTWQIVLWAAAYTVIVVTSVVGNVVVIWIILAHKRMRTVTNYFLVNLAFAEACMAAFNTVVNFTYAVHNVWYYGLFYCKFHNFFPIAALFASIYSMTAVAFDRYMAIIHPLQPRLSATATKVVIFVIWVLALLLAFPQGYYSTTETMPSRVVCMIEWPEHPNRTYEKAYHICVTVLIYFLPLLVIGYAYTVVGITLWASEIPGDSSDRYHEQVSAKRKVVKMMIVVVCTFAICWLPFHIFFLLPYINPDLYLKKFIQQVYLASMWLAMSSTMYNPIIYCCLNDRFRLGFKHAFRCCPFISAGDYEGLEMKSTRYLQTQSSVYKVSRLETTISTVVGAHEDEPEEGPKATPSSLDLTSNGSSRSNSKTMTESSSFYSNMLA
Procedure: as §1
Allogenic BMT was conducted using the C57BL/6N and BALB/c mice as transplant donors and recipients, respectively. […]
Clinical examination was performed to evaluate the ocular disease progression. […] Tear production was quantified with phenol red thread test (Zone-Quick; Lacrimedics, Eastsound, Wash., USA). […] The length of the moistened thread was measured in both eyes and the average was used as lacrimal tear volume for comparative analysis.

## C[C@@H](O[C@H]1OCCN(Cc2nc(=O)n(P(=O)(O)O)[nH]2)[C@H]1c1ccc(F)cc1)c1cc(C(F)(F)F)cc(C(F)(F)F)c1 [Fosaprepitant, [3-{[(2R,3S)-2-[(1R)-1-[3,5-bis(trifluoromethyl)phenyl]ethoxy]-3-(4-fluorophenyl)morpholin-4-yl]methyl}-5-oxo-2H-1,2,4-triazol-1-yl]phosphonic acid]
CD3+ cells
  CD3+ cells infiltrating the conjunctiva: reduced; also recorded: significantly decreased
  CD3+ cells infiltrating the cornea: reduced; also recorded: significantly decreased
  CD3+ cells infiltrating the lacrimal gland: reduced; also recorded: significantly decreased
NK1R
  corneal fluorescein staining compared to BM+T mice: reduction; also recorded: significantly reduced
